Laboratory results from PubChem BioAssay AID1963984 (Molecular Pharmacology Branch, DTP, NCI, 2024).

Tested on: 233499-124-R-J3-PDC spheroids with HUVEC/MSC, viability
Assay: Anticancer human tumor 233499-124-R-J3-PDC patient-derived colon adenocarcinoma cell line growth inhibition [PI3K]
Conditions: for IC50: curve of first compound; for viability, T/C: stronger effect = lower value
Method in brief: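 Complex 3D spheroids (cancer cells + endothelial HUVEC + mesenchymal stem cells); drug pairs of targeted agent x inavolisib/alpelisib/duvelisib/copanlisib; half-log series from ~Cmax, max 10 microM if Cmax unknown; endpoint viability.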

[1] = second compound 0.00316 µM, first compound 0.0316 µM
[2] = second compound 0.00316 µM, first compound 0.1 µM
[3] = second compound 0.00316 µM, first compound 0.316 µM
[4] = second compound 0.00316 µM, first compound 1 µM
[5] = second compound 0.01 µM, first compound 0.0316 µM
[6] = second compound 0.01 µM, first compound 0.1 µM
[7] = second compound 0.01 µM, first compound 0.316 µM
[8] = second compound 0.01 µM, first compound 1 µM
[9] = second compound 0.0316 µM, first compound 0.0316 µM
[10] = second compound 0.0316 µM, first compound 0.1 µM
[11] = second compound 0.0316 µM, first compound 0.316 µM
[12] = second compound 0.0316 µM, first compound 1 µM
[13] = second compound 0.1 µM, first compound 0.0316 µM
[14] = second compound 0.1 µM, first compound 0.1 µM
[15] = second compound 0.1 µM, first compound 0.316 µM
[16] = second compound 0.1 µM, first compound 1 µM
[17] = second compound 0.316 µM, first compound 0.0316 µM
[18] = second compound 0.316 µM, first compound 0.1 µM
[19] = second compound 0.316 µM, first compound 0.316 µM
[20] = second compound 0.316 µM, first compound 1 µM
[21] = second compound 1 µM, first compound 0.0316 µM
[22] = second compound 1 µM, first compound 0.1 µM
[23] = second compound 1 µM, first compound 0.316 µM
[24] = second compound 1 µM, first compound 1 µM
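Also: spheroids exposed to agents for seven days before readout.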
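For viability, T/C in this document: percent viability relative to DMSO vehicle control taken as 100%.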

With `Cn1nccc1Nc1nccc(-c2ccn(C(CO)c3ccc(Cl)c(F)c3)c(=O)c2)n1` (centres undefined) + COc1c(OCCCN2CCOCC2)ccc2c3n(c(=NC(=O)c4cnc(N)nc4)nc12)CCN3 the IC50 (second compound 0.00316 µM) was > 10000 nM, the IC50 (second compound 0.01 µM) was > 10000 nM and the IC50 (second compound 0.0316 µM) was > 10000 nM. For the same molecule, the IC50 (second compound 0.1 µM) was 791 nM, the IC50 (second compound 0.316 µM) was < 31.6 nM and the IC50 (second compound 1 µM) was < 31.6 nM. For the same molecule, the viability, T/C [1] was 90.5%, the viability, T/C [2] was 86.6% and the viability, T/C [3] was 86.4%. The viability, T/C [4] was 91.4%, the viability, T/C (second compound 0.00316 µM, first compound 3.16 µM) was 80.1% and the viability, T/C (second compound 0.00316 µM, first compound 10 µM) was 70.1%. It also gave a viability, T/C [5] of 90%, a viability, T/C [6] of 78.2% and a viability, T/C [7] of 67.7%. For the same molecule, the viability, T/C [8] was 78.3%, the viability, T/C (second compound 0.01 µM, first compound 3.16 µM) was 67% and the viability, T/C (second compound 0.01 µM, first compound 10 µM) was 56.3%. It also gave a viability, T/C [9] of 92.1%, a viability, T/C [10] of 75.9% and a viability, T/C [11] of 70.6%. It also gave a viability, T/C [12] of 65.9%, a viability, T/C (second compound 0.0316 µM, first compound 3.16 µM) of 53.7% and a viability, T/C (second compound 0.0316 µM, first compound 10 µM) of 54.3%. The viability, T/C [13] was 84.9%, the viability, T/C [14] was 72% and the viability, T/C [15] was 58.4%. For the same molecule, the viability, T/C [16] was 46.2%, the viability, T/C (second compound 0.1 µM, first compound 3.16 µM) was 40.3% and the viability, T/C (second compound 0.1 µM, first compound 10 µM) was 24.4%. The viability, T/C [17] was 20.4%, the viability, T/C [18] was 37.7% and the viability, T/C [19] was 27.1%. It also gave a viability, T/C [20] of 14.2%, a viability, T/C (second compound 0.316 µM, first compound 3.16 µM) of 12% and a viability, T/C (second compound 0.316 µM, first compound 10 µM) of 9.88%. The viability, T/C [21] was 5.63%, the viability, T/C [22] was 5.4% and the viability, T/C [23] was 6.24%. For the same molecule, the viability, T/C [24] was 5.85%, the viability, T/C (second compound 1 µM, first compound 3.16 µM) was 2.1% and the viability, T/C (second compound 1 µM, first compound 10 µM) was 1.53%.

For `CCN1CCN(Cc2ccc(Nc3ncc(F)c(-c4cc(F)c5nc(C)n(C(C)C)c5c4)n3)nc2)CC1` + CC(Nc1ccc2c(c1)OCCn1cc(N3C(=O)OCC3C(F)F)nc1-2)C(N)=O, the IC50 (second compound 0.00316 µM) was > 1000 nM, the IC50 (second compound 0.01 µM) was 672 nM and the IC50 (second compound 0.0316 µM) was 528 nM. For the same molecule, the IC50 (second compound 0.1 µM) was 236 nM, the IC50 (second compound 0.316 µM) was 86.9 nM and the IC50 (second compound 1 µM) was 4.39 nM. The viability, T/C (second compound 0.00316 µM, first compound 0.00316 µM) was 68.8%, the viability, T/C (second compound 0.00316 µM, first compound 0.01 µM) was 98.9% and the viability, T/C [1] was 94%. For the same molecule, the viability, T/C [2] was 73.7%, the viability, T/C [3] was 59.5% and the viability, T/C [4] was 49.7%. The viability, T/C (second compound 0.01 µM, first compound 0.00316 µM) was 106%, the viability, T/C (second compound 0.01 µM, first compound 0.01 µM) was 95.8% and the viability, T/C [5] was 89.7%. It also gave a viability, T/C [6] of 85.4%, a viability, T/C [7] of 79.9% and a viability, T/C [8] of 35.7%. The viability, T/C (second compound 0.0316 µM, first compound 0.00316 µM) was 90.2%, the viability, T/C (second compound 0.0316 µM, first compound 0.01 µM) was 85.2% and the viability, T/C [9] was 82%. For the same molecule, the viability, T/C [10] was 91.6%, the viability, T/C [11] was 58.5% and the viability, T/C [12] was 39.3%. It also gave a viability, T/C (second compound 0.1 µM, first compound 0.00316 µM) of 87.8%, a viability, T/C (second compound 0.1 µM, first compound 0.01 µM) of 90.8% and a viability, T/C [13] of 73.8%. For the same molecule, the viability, T/C [14] was 79%, the viability, T/C [15] was 39.4% and the viability, T/C [16] was 40.8%. It also gave a viability, T/C (second compound 0.316 µM, first compound 0.00316 µM) of 73.2%, a viability, T/C (second compound 0.316 µM, first compound 0.01 µM) of 72.7% and a viability, T/C [17] of 63%. The viability, T/C [18] was 51.1%, the viability, T/C [19] was 31.2% and the viability, T/C [20] was 44.5%. It also gave a viability, T/C (second compound 1 µM, first compound 0.00316 µM) of 55.3%, a viability, T/C (second compound 1 µM, first compound 0.01 µM) of 45.2% and a viability, T/C [21] of 32.2%. It also gave a viability, T/C [22] of 48.9%, a viability, T/C [23] of 42.6% and a viability, T/C [24] of 27.8%.

`Cn1cnc2c(F)c(Nc3ccc(Br)cc3Cl)c(C(=O)NOCCO)cc21` was tested, and the viability, T/C (compound 0.00949 µM) was 80.2% [middle of 4 runs], the viability, T/C (compound 0.0949 µM) was 64.8% [middle of 4 runs] and the viability, T/C (compound 0.3 µM) was 50.3% [middle of 4 runs]. For the same molecule, the viability, T/C (compound 0.949 µM) was 49.8% [middle of 4 runs] and the viability, T/C (compound 3 µM) was 30.5% [middle of 4 runs].
